# Measurements taken from patent US20110039901A1, “PROCESS FOR PREPARING A CRYSTALLINE FORM COMPOUND OF 3-BENZYL-2-METHYL-2,3,3a,4,5,6,7,7a-OCTAHYDROBENZO[d]ISOXAZOL-4-ONE” (Abiogen Pharma S.P.A., priority 2008, published 2011).
# Assay: stability of the hydrochloride salt at elevated temperature
# Assay type: physicochemical
# Conditions: at temperatures above 30° C.
structure (smiles),measurement,value
CN1OC2CCCC(=O)C2C1Cc1ccccc1.Cl (stereo not shown) [hydrochloride salt of BTG 1640],stability at temperature,unstable
